# Measurements reported in patent US12478001B2, “Plant activator containing amino acid or salt thereof, and oligosaccharide, and use thereof” (priority 2019, dated 2025).
# Key:
# Format in all cases: in vivo
# frill lettuce = test: Frill lettuce hydroponic cultivation test, root dry weight; details: hydroponics, 60 days cultivation, percentage with non-added group root dry weight as 100%, vitalizer 50-100 ppm by mass
# Procedure: Each oligosaccharide prepared in [1. Preparation of oligosaccharide] and each amino acid prepared in [2. Preparation of amino acids] were dissolved in water while stirring with a stirrer in a compositional ratio to 1000 times the plant vitalizer concentration (ppm by mass) in Comparative Examples 1 and 2 and Examples 1 and 6 to 7 listed in the tables, after which the bacteria were removed with a 0.45 μm filter, to obtain plant vitalizer stock solutions.
# In the test groups, 150 g of each of the plant vitalizer stock solutions under different conditions was added to and dispersed in 150 L of culture solution prepared for hydroponics (1000-fold dilution), and cultivation was started for each of 120 varieties at a temperature of 20 to 22° C. Cultivation was carried out for a total of 60 days, with a total of 5 times every week after beginning further addition of 150 g of plant vitalizer stock solution, and the root dry weights of the frill lettuce were measured.
# The root dry weights were determined by cutting the root parts, drying the cut roots with a constant temperature dryer for 12 hours at 50° C., and then measuring the weights.
# The root dry weights in Table 1 are percentages (%) with respect to 100% as the root dry weight in the non-added group without plant vitalizer addition.
# komatsuna [1] = test: Evaluation of komatsuna elicitor activity (glucanase activity measurement); details: komatsuna grown 6 days on MS agar medium containing plant vitalizer; glucanase activity (Abs590) of leaf extract; control = Comparative Example 3 without vitalizer
# Procedure: (i) The plant is sampled and pretreated; (ii) a calibration curve is drawn using BSA as the protein standard (using absorbance at a wavelength (600 nm) in a dye binding method); (iii) the protein concentration of the specimen prepared in (i) is measured; (iv) the glucanase activity of the specimen prepared in (i) is measured.
# Each oligosaccharide prepared in [1. Preparation of oligosaccharide] and each amino acid prepared in [2. […] Each stock solution was diluted 1000-fold with water and used for the following cultivation test.
# Murashige and Skoog (MS) agar medium was used for raising of the komatsuna.
# High-pressure steam sterilized MS medium was transferred into a plant box on a clean bench and thoroughly cooled, and then komatsuna (“Wakami”, Sakata Seed Corp.) were seeded in a count of 10 each. They were then grown for 6 days with long-day conditions of 24 hours in a lighted room at 22° C.
# After adding 300 μl of the prepared protein extraction buffer into a 1.5 ml tube equipped with a Biomasher (Nippi, Inc.), leaves (plant body) sampled and cut with scissors to approximately 4×4 mm were added. The procedure was carried out 5 times for each sample. A stirring rod was then rotated by hand to break up the plant body until the solid portion was generally no longer visible. Centrifugal separation was carried out under conditions of 15,000×g, 10 minutes, 4° C., and the aqueous layer was collected into a fresh 1.5 ml tube to prepare a liquid extract.
# A 2 mg/ml portion of bovine serum albumin (BSA) of known purity was serially diluted (1/2, 1/4, 1/8, 1/16, 1/32 and 1/64 dilution) to prepare standards. The prepared standards were used to determine the average absorbance at 600 nm (Abs600), and a calibration curve was drawn (n=3). After injecting 300 μl of Coomassie Brilliant Blue (CBB) solution into a 96-well plate, 6 μl of the prepared liquid extract was added. The Abs600 was then measured. The blank used was MilliQ. The absorbance of the liquid extract was fitted onto the calibration curve drawn with the 2 mg/ml of serially diluted BSA, to determine the protein concentration.
# Dilution was carried out to a constant liquid extract concentration using the determined values, and the diluted extract was used for the following glucanase activity measurement.
# In a 1.5 ml tube there were mixed 100 μl of a B-HS substrate solution prepared by suspending one tablet of B-HS reagent (Megazyme Co.) in 10 ml of MilliQ, 50 μl of 0.2 M phosphate buffer solution (pH 6.0) and 50 μl of the previously prepared diluted solution or ultrapure water (blank), to prepare samples for each of the Comparative Examples and Examples. Enzyme reaction was conducted for 1 hour and 30 minutes in a water bath at 30° C., shaking the sample well every 15 minutes. A 100 μl portion of 0.2 N NaOH as reaction stop solution (total: 300 μl) was added to stop the reaction.
# komatsuna [2] = test: Measurement of komatsuna fresh weight after foliar application; details: komatsuna raised 34 days in soil, vitalizer applied to leaves at one-week intervals; control = Comparative Example 11 without vitalizer
# Procedure: Each oligosaccharide prepared in [1. […] Each stock solution was diluted 1000-fold with water and used for the following cultivation test. A sample was prepared with […] Corp.) as the plant crop, organic vegetable soil (Hirota Shoten) as the soil and Shin-Taki Organic Liquid Fertilizer #3 (Taki Chemical Co., Ltd.) as the fertilizer. After sprouting the plants on filter paper, they were planted into a 25-hole connected pot (280×280 mm overall, with holes of 50×50×50 mm) containing culturing soil and fertilizer.
SMILES,Elicitor activity (compared to control as 100) (komatsuna [1]),Fresh weight (compared to control as 100) (komatsuna [2]),further results
"NCC(=O)O [Comparative Example 2, Glycine]",,,Increase in root dry weight with respect to non-added group (measured n = 5) (frill lettuce): 112%
"NCCCC[C@H](N)C(=O)O [Comparative Example 6, Lysine]",104,,
"NCC(=O)O [compound 5, Glycine]",141,,
"N[C@@H](CCC(=O)[O-])C(=O)[O-].[Na+].[Na+] [compound 7, Sodium glutamate]",82,,
"N[C@@H](Cc1c[nH]cn1)C(=O)O [compound 8, Histidine]",89,,
"C[C@H](N)C(=O)O [compound 9, Alanine]",72,,
"N=C(N)NCCC[C@H](N)C(=O)O [compound 10, Arginine]",79,,
"N[C@@H](Cc1c[nH]cn1)C(=O)O [compound 12, Histidine]",,92%,
"NCC(=O)O [compound 13, Glycine]",,102%,
"N[C@@H](CCC(=O)[O-])C(=O)[O-].[Na+].[Na+] [compound 14, Sodium glutamate]",,89%,
